Laboratory results published in patent publication US5484778A, “Phthalocyanine photosensitizers for photodynamic therapy and methods for their use” (priority 1993, dated 1996).
“Also recorded” adds a separate entry of the source. Read-outs that look alike come from different tables or passages of the source.

Legend:
[1] = system: Chinese hamster V79-379 cells; assay: Growth delay of V79 cultures after red light (Table 1); format: cell-based
In short: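 V79-379 lung fibroblasts were pretreated 18 h with phthalocyanines (0.5-1.0 μM final) or 1 μM AlPcCl, then irradiated in HBSS with >600 nm light at 12 kJ/m^2. Cells were counted over 3 days. Growth delay is the time for cell density to regain its level at irradiation, reported as a ratio to same-experiment AlPcCl.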

V79 cells = assay: Clonogenicity, killing of V79 cells using photodynamic therapy (Table 3); format: cell-based, Chinese hamster
In short: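 V79 Chinese hamster lung fibroblasts were loaded with 0.5 or 1.0 μM phthalocyanine, then about 18 h later irradiated with increasing doses of 675 nm broad-band red light (tungsten-halogen lamp, 600 nm high-pass filter). Recorded value is the light dose killing 90% of cells, or, failing that, the maximum kill (% survival) and its dose.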

L5178Y-R (LY-R) cells = assay: Clonogenic survival of PDT-treated L5178Y-R cells (Tables 4 and 5, FIG. 3); format: cell-based, mouse; conditions: for viability at 0.5 µM: Mus musculus, read-out: normalized plating efficiency / percent survival, 0.5 μM
Method: Mouse lymphoma L5178y-R (hereinafter also referred to as "LY-R") cells were grown in suspension culture as described in Ramakrishnan N., Oleinick, N. L. Clay, M. E., Horng, M. F., Antunez, A. R., and Evans H. H., DNA lesions and DNA degradation in mouse lymphoma L5178Y cells after photodynamic treatment sensitized by chloroaluminum phthalocyanine. Photochem. Photobiol. 50, 373-378, 1989 and Agarwal, M. L., Clay, M. E., Harvey, E. J., Evans, H. H., Antunez, A. R., and Oleinick, N. L. Photodynamic therapy induces rapid cell death by apoptosis in L5178Y mouse lymphoma cells. Cancer Res., 51, 5993-5996, 1991.
The cells were used while in exponential growth. Stock solutions of either 0.5 or 1 mM of PcIV, PcXII, PcX, PcXVIII were prepared in dimethylformamide unless otherwise indicated and added to the 10 mL medium at a rate of 1 μL per mL. After allowing 18 hours for uptake of the phthalocyanine into the cells, the flasks containing the cultures were placed on a glass exposure tray above a 500-W tungsten-halogen lamp. The exposure tray was fitted with a 600-nm high-pass filter. Flasks were exposed to various fluences of red light (up to 30 kJ/m^2) at a fluence rate of approximately 74 W/m^2). After irradiation, the cells were collected by centrifugation.
For measurement of clonogenic cell survival, aliquots were plated in medium containing soft agar as described in Ramakrishnan N., Oleinick, N. L. Clay, M. E., Horng, M. F., Antunez, A. R., and Evans H. H., DNA lesions and DNA degradation in mouse lymphoma L5178Y cells after photodynamic treatment sensitized by chloroaluminum phthalocyanine. Photochem. Photobiol. 50, 373-378, 1989. The aliquots were plated in sufficient numbers to produce 50-200 colonies. The dishes were kept in an incubator at 37° C. in an atmosphere of 5% CO2 and 95% air for 10-14 days to allow viable cells to form colonies. Colonies were counted by eye. Controls treated with the phthalocyanine alone had plating efficiencies of ~90%. The plating efficiencies of the treated cells are normalized to the plating efficiencies of control cells in each experiment. For measurement of the induction of apoptosis, DNA was isolated from the treated and control cells 2 hours after photodynamic therapy, subjected to electrophoresis on 1.5% agarose, stained with ethidium bromide, and visualized by UV transillumination, as described in Agarwal et. al. The results are shown in Tables 4, 5 and 6 and in FIG. 3.
In Table 4 each phthalocyanine was present at 0.5 μM, and the normalized plating efficiencies are presented as mean and standard deviation at each fluence tested. […] This relative activity of these four phthalocyanines is the same as obtained from screening in V79 cells.
PcXII when present in the culture medium at 0.5 μM requires less light, that is the lowest fluence, to kill either 50% […] of the cells. PcIV is about 80% as active as PcXII, PcX is 44% as active as PcXII and PcXVIII is 22% as active as PcXII.

RIF-1 tumors = assay: Histology and DNA fragmentation in PDT-treated tumors; format: in vivo, C3H/HeN mice
[2] = Retention in tumor tissue (pharmacokinetics); conditions: in vivo

CN(C)CCC[Si](C)(C)O[Si]1(O)n2c3c4ccccc4c2N=C2N=C(N=c4c5ccccc5c(n41)=NC1=NC(=N3)c3ccccc31)c1ccccc12 (stereo not drawn) [Compound IV, HOSiPcOsi(CH3)2)(CH2)3 N(CH3)2]
Growth Delay, efficiency relative to 1 μM AlPcCl ([1]; 0.5 μM, 18 h, 12 kJ/m^2 red light): > 3 | inhibition of V79 culture growth (in words) ([1]; red light 12 kJ/m^2, three day period): substantial inhibition | LD 90 (V79 cells; 0.5 μM, 18 h, light dose killing 90% of cells): 4 kJ/m^2 | photosensitizing activity, killing V79 cells (in words) (V79 cells; discussion of Table 3): most active at killing V79 cells | activity relative to PcXII (L5178Y-R (LY-R) cells; 0.5 μM, from Table 5): about 80% | LD 90 (L5178Y-R (LY-R) cells; 0.5 μM, fluence reducing survival to 10%): 2.15 kJ/m^2 | LD50 (L5178Y-R (LY-R) cells; 0.5 μM, fluence reducing survival to 50%): 1.38 kJ/m^2 | photosensitizer activity in LY-R cells (in words) (L5178Y-R (LY-R) cells; 0.5 μM, listed as PcIV): active photosensitizers; also recorded: most active | viability at 0.5 µM (L5178Y-R (LY-R) cells; 0 kJ/m^2): 100% | viability at 0.5 µM (L5178Y-R (LY-R) cells; 1 kJ/m^2): 80.9% | viability at 0.5 µM (L5178Y-R (LY-R) cells; 2 kJ/m^2): 19.7% | viability at 0.5 µM (L5178Y-R (LY-R) cells; 2.5 kJ/m^2): 0.82% | viability at 0.5 µM (L5178Y-R (LY-R) cells; 3 kJ/m^2): 0.16% | viability at 0.5 µM (L5178Y-R (LY-R) cells; 5 kJ/m^2): 0.014% | apoptotic bodies in the tumor (RIF-1 tumors; histological examination): presence of apoptotic bodies in the tumor | DNA fragment sizes, multiples of (RIF-1 tumors; mouse, in vivo): 180-200 base pairs | retention in tumor tissue after administration [2]: ≥ 7 days | solubility in solvents (Solubility): soluble in CH2 Cl2 and toluene
